In article PMC5155509 (ChemMedChem, 2016):
≈ marks a conversion by molar mass, not a printed value. Where “and” joins values, the source holds several entries; their conditions need not be identical. Identical values can stand only once. Like-named read-outs stand apart in the source and are kept apart here. One block for each molecule: values may come before it.

How the values were obtained:
[1] = tested on: B. subtilis; assay: Synergy/antagonism two-drug combination assay, B. subtilis; format: cell-based, Bacillus subtilis; conditions: for FIC antibiotic / FIC Index / Mean FICI / FIC 7: B. subtilis; for FIC antibiotic: antibiotic in combination with 7, mean±SD duplicate; for FIC Index: combination of the antibiotic with 7, mean±SD; for MIC: Bacillus subtilis
[2] = tested on: S. aureus; assay: Synergy/antagonism two-drug combination assay, S. aureus; format: cell-based, Staphylococcus aureus; conditions: for FIC antibiotic / FIC Index / Mean FICI / FIC 7: S. aureus; for FIC antibiotic: antibiotic in combination with 7, mean±SD duplicate; for FIC Index: combination of the antibiotic with 7, mean±SD; for MIC: Staphylococcus aureus
[3] = tested on: B. subtilis; conditions: earlier work of the authors, no reference given; cited from earlier work
[4] = tested on: E. coli; conditions: earlier work of the authors, no reference given; cited from earlier work
[5] = tested on: E. coli UPPS (EcUPPS); conditions: read-out: IC50 EcUPPS; previous work ref 3b; cited from earlier work
[6] = tested on: Staphylococcus aureus and Bacillus subtilis; assay: Bacterial cell growth inhibition, bacterium not specified at the place; format: cell-based
[7] = target: T1, SaUPPS (Staphylococcus aureus, UniProt P60477); assay: biochemical; format: biochemical
T1 sequence (P60477 1-256): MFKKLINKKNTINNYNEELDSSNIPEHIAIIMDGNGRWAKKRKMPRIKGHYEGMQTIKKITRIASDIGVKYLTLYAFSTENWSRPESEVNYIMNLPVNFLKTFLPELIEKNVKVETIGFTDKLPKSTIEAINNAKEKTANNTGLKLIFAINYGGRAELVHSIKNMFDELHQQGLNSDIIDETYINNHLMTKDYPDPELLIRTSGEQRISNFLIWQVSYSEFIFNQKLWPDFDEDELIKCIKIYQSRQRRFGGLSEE

[8] = target: EcUPPP (fusion hybrid of E. coli UPPP with Haloarcula marismortui bacteriorhodopsin) (UniProt P60932+Q5UXY6, D94N); format: biochemical; conditions: read-out: IC50 EcUPPP
Chain of EcUPPP (fusion hybrid of E. coli UPPP with Haloarcula marismortui bacteriorhodopsin) (P60932 whole entry, looked up, the tested form may be a part): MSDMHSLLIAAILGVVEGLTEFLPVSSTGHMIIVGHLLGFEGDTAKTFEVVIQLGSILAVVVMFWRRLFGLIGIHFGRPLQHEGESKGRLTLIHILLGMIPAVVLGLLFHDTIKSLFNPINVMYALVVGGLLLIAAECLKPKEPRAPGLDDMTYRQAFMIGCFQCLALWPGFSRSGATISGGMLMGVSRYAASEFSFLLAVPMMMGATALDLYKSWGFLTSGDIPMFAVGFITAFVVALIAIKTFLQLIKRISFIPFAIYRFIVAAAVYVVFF
Chain of EcUPPP (fusion hybrid of E. coli UPPP with Haloarcula marismortui bacteriorhodopsin) (Q5UXY6 whole entry, looked up, stated change not applied, the tested form may be a part): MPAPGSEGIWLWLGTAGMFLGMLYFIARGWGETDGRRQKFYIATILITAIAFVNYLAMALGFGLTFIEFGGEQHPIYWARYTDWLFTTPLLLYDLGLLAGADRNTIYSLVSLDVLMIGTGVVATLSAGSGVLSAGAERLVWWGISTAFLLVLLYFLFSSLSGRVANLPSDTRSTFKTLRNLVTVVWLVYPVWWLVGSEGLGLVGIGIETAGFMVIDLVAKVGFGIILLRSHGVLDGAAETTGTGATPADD

[9] = tested on: B. subtilis; assay: B. subtilis growth inhibition assay; format: cell-based, Bacillus subtilis; conditions: 12 hours at 37°C, OD600
[10] = tested on: NCI-H460 cells; assay: H460 cell toxicity; format: cell-based, human; conditions: 24 h, MTT
[11] = tested on: S. aureus and B. subtilis; assay: Synergy/antagonism assays, average over B. subtilis and S. aureus combinations; format: cell-based
[12] = 7 with inhibitors targeting cell wall biosynthesis
[13] = 7 with inhibitors targeting nucleic acids and protein biosynthesis

- MIC ([1]; 24 h, read-out: MIC antibiotic): 2.5 µg/mL
- MIC ([2]; 24 h, read-out: MIC antibiotic): 2 µg/mL
Molecule: CO/N=C(\C(=O)N[C@@H]1C(=O)N2C(C(=O)O)=C(COC(C)=O)CS[C@H]12)c1csc(N)n1 [Cefotaxime, cefotaxime]
- FIC antibiotic [1]: 0.17 ± 0.026
- FIC Index [1]: 0.31 ± 0.085
- FIC antibiotic [2]: 0.18 ± 0.055
- FIC Index [2]: 0.27 ± 0.063

- MIC ([2]; 24 h, read-out: MIC antibiotic): 40 µg/mL
Molecule: CN[C@@H]1[C@H](O)[C@H](NC)[C@H]2O[C@@]3(O)C(=O)C[C@@H](C)O[C@H]3O[C@@H]2[C@H]1O [Spectinomycin, spectinomycin]
- FIC antibiotic [2]: 0.75 ± 0.43
- FIC Index [2]: 1.56 ± 0.54

- MIC ([1]; 24 h, read-out: MIC antibiotic): 0.5 µg/mL
- MIC ([2]; 24 h, read-out: MIC antibiotic): 0.5 µg/mL
Molecule: CC1(C)S[C@@H]2[C@H](NC(=O)[C@H](N)c3ccccc3)C(=O)N2[C@H]1C(=O)O [Ampicillin, ampicillin]
- FIC antibiotic [1]: 0.30 ± 0.072
- FIC Index [1]: 0.53 ± 0.11
- FIC antibiotic [2]: 0.41 ± 0.17
- FIC Index [2]: 0.56 ± 0.18

- MIC ([1]; 24 h, read-out: MIC antibiotic): 200 µg/mL
- MIC ([2]; 24 h, read-out: MIC antibiotic): 200 µg/mL
Molecule: Cc1cc(NS(=O)(=O)c2ccc(N)cc2)no1 [Sulfamethoxazole, sulfamethoxazole]
- FIC antibiotic [1]: 0.78 ± 0.21
- FIC Index [1]: 1.72 ± 0.67
- FIC Index ([1]; listed as sulfamethoxazole): 1.72
- FIC antibiotic [2]: 0.54 ± 0.13
- FIC Index [2]: 1.53 ± 0.39

- MIC ([1]; 24 h, read-out: MIC antibiotic): 200 µg/mL
- MIC ([2]; 24 h, read-out: MIC antibiotic): 200 µg/mL
Molecule: C[C@@H]1O[C@@H]1P(=O)(O)O [Fosfomycin, fosfomycin]
- FIC antibiotic [1]: 0.16 ± 0.15
- FIC Index [1]: 0.22 ± 0.15
- FIC antibiotic [2]: 0.20 ± 0.11

- MIC ([1]; 24 h, read-out: MIC antibiotic): 5 µg/mL
- MIC ([2]; 24 h, read-out: MIC antibiotic): 15 µg/mL
Molecule: CC1(C)S[C@@H]2[C@H](NC(=O)C(C(=O)O)c3ccccc3)C(=O)N2[C@H]1C(=O)O (some centres unmarked) [Carbenicillin, carbenicillin]
- FIC antibiotic [1]: 0.22 ± 0.073
- FIC Index [1]: 0.37 ± 0.10
- FIC antibiotic [2]: 0.23 ± 0.048
- FIC Index [2]: 0.30 ± 0.055

The remaining lines, values behind:

Molecule: CN(C)[C@@H]1C(O)=C(C(N)=O)C(=O)[C@@]2(O)C(O)=C3C(=O)c4c(O)cccc4[C@@](C)(O)[C@H]3C[C@@H]12 [Tetracycline, tetracycline]
- FIC antibiotic [1]: 0.48 ± 0.047
- FIC Index [1]: 1.04 ± 0.50
- MIC ([1]; 24 h, read-out: MIC antibiotic): 5 µg/mL
- FIC antibiotic [2]: 0.24 ± 0.11
- FIC Index [2]: 0.75 ± 0.26
- MIC ([2]; 24 h, read-out: MIC antibiotic): 0.5 µg/mL

Molecule: O=C(N[C@H](CO)[C@H](O)c1ccc([N+](=O)[O-])cc1)C(Cl)Cl [Chloramphenicol, chloramphenicol]
- FIC antibiotic [1]: 0.75 ± 0.18
- FIC Index [1]: 1.72 ± 0.46
- MIC ([1]; 24 h, read-out: MIC antibiotic): 0.5 µg/mL
- FIC antibiotic [2]: 0.88 ± 0.47
- FIC Index [2]: 1.69 ± 0.56
- MIC ([2]; 24 h, read-out: MIC antibiotic): 5 µg/mL

Molecule: CCCCCCCCCCOc1cccc(C(=O)Nc2ccc([N+](=O)[O-])cc2C(=O)O)c1 [Compound 6, 2-(3-(decyloxy)benzamido)-5-nitrobenzoic acid]
- ED50 against B. subtilis [3]: 1.3 µM
- activity against E. coli (in words) [4]: no activity
- IC50 [5]: 3 µM

Molecule: 2-(N-Methyl-3-(octyloxy)benzamido)phenylphosphonic acid [Compound 31]
- antibacterial activity (in words) ([6]; S. aureus and B. subtilis cell growth): little or no antibacterial activity
- IC50 ([7]; read-out: IC50 SaUPPS, 5 μM FPP, 50 μM IPP, pH 7.5): 39 µM
- IC50 [8]: 6.5 µM
- ED50 B. subtilis cell growth [9]: >100 µg/mL

Molecule: CCCCCCCCOc1cccc(C(=O)Nc2ccc(F)cc2C(=O)O)c1 [Compound 7, 5-Fluoro-2-(3-(octyloxy)benzamido)benzoic acid]
- toxicity against human cell line NCI-H460 (in words) [10]: low activity
- ED50 bacterial growth ([6]; abstract, bacterium not specified): ~ 0.15 μg/mL
- IC50 [7]: 0.32 µM
- ED50 B. subtilis cell growth [9]: 0.14 µg/mL (≈ 0.361 µM)
- Mean FICI [1, 12]: 0.37 and 0.37 ± 0.14
- Mean FICI [1, 13]: 1.47 and 1.47 ± 0.28
- FIC 7 ([1]; with Ampicillin): 0.23 ± 0.084
- FIC 7 ([1]; with Bacitracin): 0.36 ± 0.14
- FIC 7 ([1]; with Carbenicillin): 0.15 ± 0.071
- FIC 7 ([1]; with Cefotaxime): 0.14 ± 0.081
- FIC 7 ([1]; with Chloramphenicol): 0.97 ± 0.42
- FIC 7 ([1]; with Fosfomycin): 0.063 ± 0.022
- FIC 7 ([1]; with Fosmidomycin): 0.13 ± 0.056
- FIC 7 ([1]; with Kanamycin): 0.71 ± 0.30
- FIC 7 ([1]; with Sulfamethoxazole): 0.94 ± 0.64
- FIC 7 ([1]; with Tetracycline): 0.57 ± 0.50
- FIC 7 ([1]; with Trimethoprim): 0.85 ± 0.29
- FIC 7 ([1]; with Vancomycin): 0.17 ± 0.063
- MIC ([1]; read-out: MIC 7): 1 µg/mL
- Mean FICI [2, 12]: 0.32 and 0.32 ± 0.12
- Mean FICI [2, 13]: 1.42 and 1.42 ± 0.37
- FIC 7 ([2]; with Ampicillin): 0.15 ± 0.071
- FIC 7 ([2]; with Bacitracin): 0.044 ± 0.019
- FIC 7 ([2]; with Carbenicillin): 0.077 ± 0.026
- FIC 7 ([2]; with Cefotaxime): 0.084 ± 0.031
- FIC 7 ([2]; with Chloramphenicol): 0.81 ± 0.31
- FIC 7 ([2]; with Fosfomycin): 0.091 ± 0.034
- FIC 7 ([2]; with Kanamycin): 0.83 ± 0.29
- FIC 7 ([2]; with Spectinomycin): 0.81 ± 0.32
- FIC 7 ([2]; with Sulfamethoxazole): 0.98 ± 0.37
- FIC 7 ([2]; with Tetracycline): 0.51 ± 0.24
- FIC 7 ([2]; with Trimethoprim): 0.57 ± 0.25
- FIC 7 ([2]; with Vancomycin): 0.15 ± 0.062
- MIC ([2]; read-out: MIC 7): 1 µg/mL
- FICI on average ([11]; with known cell wall biosynthesis inhibitors, n=13 cell/inhibitor combinations): ~ 0.35
- FICI on average ([11]; with non cell-wall biosynthesis inhibitors, n=12 cell/inhibitor combinations): ~ 1.45

Molecule: COc1cc(Cc2cnc(N)nc2N)cc(OC)c1OC [Trimethoprim, trimethoprim]
- FIC antibiotic [1]: 0.66 ± 0.13
- FIC Index [1]: 1.51 ± 0.32
- MIC ([1]; 24 h, read-out: MIC antibiotic): 0.5 µg/mL
- FIC antibiotic [2]: 0.69 ± 0.32
- FIC Index [2]: 1.26 ± 0.41
- MIC ([2]; 24 h, read-out: MIC antibiotic): 15 µg/mL

Molecule: CN[C@H](CC(C)C)C(=O)N[C@H]1C(=O)N[C@@H](CC(N)=O)C(=O)N[C@H]2C(=O)N[C@H]3C(=O)N[C@H](C(=O)N[C@H](C(=O)O)c4cc(O)cc(O)c4-c4cc3ccc4O)[C@H](O)c3ccc(c(Cl)c3)Oc3cc2cc(c3O[C@@H]2O[C@H](CO)[C@@H](O)[C@H](O)[C@H]2O[C@H]2C[C@](C)(N)[C@H](O)[C@H](C)O2)Oc2ccc(cc2Cl)[C@H]1O [Vancomycin, vancomycin]
- FIC antibiotic [1]: 0.27 ± 0.24
- FIC Index [1]: 0.44 ± 0.25
- MIC ([1]; 24 h, read-out: MIC antibiotic): 0.5 µg/mL
- FIC antibiotic [2]: 0.14 ± 0.034
- FIC Index [2]: 0.29 ± 0.071
- MIC ([2]; 24 h, read-out: MIC antibiotic): 1.5 µg/mL

Molecule: O=CN(O)CCCP(=O)(O)O [Fosmidomycin, fosmidomycin]
- FIC antibiotic [1]: 0.039 ± 0.0053
- FIC Index [1]: 0.17 ± 0.056
- FIC Index ([1]; listed as fosmidomycin): 0.17
- MIC ([1]; 24 h, read-out: MIC antibiotic): 5 µg/mL
